pIC50: −log10 of the molar value.
Key:
SOAT1 = target: T1, SOAT1 (Homo sapiens, UniProt P35610); conditions: cited from earlier work
T1 sequence (P35610 1-550): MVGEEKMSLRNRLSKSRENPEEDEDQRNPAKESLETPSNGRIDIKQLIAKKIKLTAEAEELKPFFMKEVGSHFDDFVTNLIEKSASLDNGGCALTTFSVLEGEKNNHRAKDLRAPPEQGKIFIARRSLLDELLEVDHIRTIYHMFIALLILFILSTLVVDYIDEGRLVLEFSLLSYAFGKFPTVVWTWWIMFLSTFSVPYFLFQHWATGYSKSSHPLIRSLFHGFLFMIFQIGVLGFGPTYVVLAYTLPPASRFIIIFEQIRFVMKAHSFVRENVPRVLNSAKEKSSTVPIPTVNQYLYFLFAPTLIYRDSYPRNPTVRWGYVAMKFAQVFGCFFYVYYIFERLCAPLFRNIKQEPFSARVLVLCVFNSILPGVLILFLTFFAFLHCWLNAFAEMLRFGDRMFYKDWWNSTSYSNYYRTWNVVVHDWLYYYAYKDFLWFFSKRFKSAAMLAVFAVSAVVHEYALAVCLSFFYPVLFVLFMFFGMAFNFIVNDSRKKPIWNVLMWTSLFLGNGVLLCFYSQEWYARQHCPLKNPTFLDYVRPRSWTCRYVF

22RV1 cells = assay: Cell proliferation / viability (MTT) assay; type: cell-based; conditions: for proliferation of 22RV1 cells: ENZ-resistant 22RV1 cells, FIG. 1
Experimental: Cell viability assay: An MTT assay was performed to evaluate the effect of drugs on cell viability. Ten thousand cells per well were plated in a 96-well plate and treated with drugs the following day. The MTT solution (0.5 mg/ml) was then applied to the cells for 1 h at 37° C. with 5% CO2. Precipitated formazan was dissolved in DMSO and quantified at 570 nm using a microplate reader (Beckman-Coulter). Combination index: The data obtained from the MTT assay were used to calculate cell viability and also used to calculate combination index (CI). The Chou-Talalay method was applied to determine the CI using CompuSyn software (Biosoft).

22RV1-derived xenograft = assay: 22RV1-derived mouse xenograft model; type: in vivo; conditions: castrated nude mice, daily for 3 weeks; ENZ 25 mg/kg/day oral gavage, AVA 20 mg/kg/day intraperitoneal
Experimental: All procedures were approved by the Purdue Animal Care and Use Committee. Five-week-old male nude mice (Jackson Laboratory) were purchased for the experiment. […] ENZ stock prepared in DMSO was diluted in corn oil for oral gavage and AVA solution was prepared. Once the tumors reached approximately 50-100 mm^3, the mice were randomly divided into four groups for daily drug administration for 3 weeks: (i) vehicle oral gavage (corn oil)+vehicle intraperitoneal injection (2% tween-80 (v/v) and 3.2 mg/mL 2-hydroxypropyl-β-cyclodextrin in PBS); (ii) ENZ alone (25 mg/kg body weight/day) by oral gavage; (iii) AVA alone (20 mg/kg body weight/day) by intraperitoneal injection; (iv) ENZ (25 mg/kg/day)+AVA (20 mg/kg/day). Tumors were monitored every two days with a caliper and tumor volumes were calculated with the formula V=0.5×L×W^2 (where V is volume, L is length, W is the width). At the end of the study, mice were euthanized and tumor tissues were excised and weighted.

AR signaling = assay: qPCR of genes related to AR signaling in 22RV1 cells; type: cell-based; conditions: 20 μM ENZ in presence or absence of 4 μM avasimibe, 24 h
[1] = rats, dogs, and humans; cited from earlier work

Compound | IC50 value for SOAT1 relative to the corresponding IC50 value for SOAT2 (SOAT1; SOAT1 vs SOAT2 selectivity) | proliferation of 22RV1 cells (22RV1 cells) | proliferation of shRNA-transfected 22RV1 cells (22RV1 cells; shCTRL or shSOAT1 with DMSO or ENZ, FIG. 5B) | tumor growth (appearance, average tumor volume, tumor weight) (22RV1-derived xenograft) | AR expression (mRNA) (AR signaling) | AR-V7 expression (mRNA) (AR signaling) | Nkx3.1 expression (mRNA) (AR signaling) | Psa expression (mRNA) (AR signaling) | safety when administered [1] | pIC50 (SOAT1)
CCOC(=O)OC(=O)OCC [pyrocarbonate, diethyl pyrocarbonate] | at least twice or higher |  |  |  |  |  |  |  |  | 
CNC(=O)c1ccc(N2C(=S)N(c3ccc(C#N)c(C(F)(F)F)c3)C(=O)C2(C)C)cc1F [ENZ, enzalutamide] |  | resistant | little effect on the proliferation | did not sufficiently delay the tumor growth |  |  |  |  |  | 
CC(C)c1cc(C(C)C)c(CC(=O)NS(=O)(=O)Oc2c(C(C)C)cccc2C(C)C)c(C(C)C)c1 [AVA, avasimibe] |  | slightly suppressed cell proliferation |  | did not sufficiently delay the tumor growth | did not change | did not change | downregulated | downregulated | considered safe | 4.62
